# In article PMC8347307, “Preclinical Bioavailability, Tissue Distribution, and Protein Binding Studies of Erinacine A, a Bioactive Compound from Hericium erinaceus Mycelia Using Validated LC-MS/MS Method” (Molecules, 2021):
# Where “and” joins values, the source holds several entries; their conditions need not be identical. Equal entries are not always repeated. Where two headings read alike, the source gives them in different places.
# Assays:
# [1] = tested on: insoluble β amyloid and C-terminal fragment of amyloid precursor protein; design: method as in PMID 29463001; settings: cited from earlier work
# [2] = Stability in plasma and tissues at 37 °C for 4 h; type: in vitro ADME, Sprague-Dawley rats; settings: data not shown
# [3] = rat, in vivo, iv, 5 mg/kg
# [4] = Pharmacokinetic study, erinacine A in rat plasma after oral and intravenous administration; type: in vivo, Sprague-Dawley rats
# Method: Analysis of erinacine A concentration in samples was conducted by Agilent 1100 series HPLC system (Agilent, Waldbronn, Germany) equipped with a G1376A capillary pump and a G1313A autosampler. Chromatographic separation was carried out in an Agilent Eclipse XDB-C18 column (3.5 µm, 4.6 × 100 mm) at 25 °C. The mobile phase consists of water (A) and acetonitrile (B) with gradient elution program as follows: 0 min, 70% B; 0–5 min, 70–100% B; 5–8 min, 100% B; 8–8.1 min, 100–70% B; 8.1–11 min, 70% B. The flow rate was 0.35 mL/min and injection volume was 10 μL. Mass spectrometric detection was conducted on an API 3000 triple quadrupole instrument (Applied Biosystems, Vaughan, ON, Canada) in multiple reaction monitoring (MRM) mode with parameters as follows: nebulizer gas, 10 psi; collision gas, 2 psi; curtain gas, 7 psi; source voltage, 4.5 kV; source temperature, 275 °C. A turbo ionspray electrospray ionization (ESI) interface in positive ionization mode was used (Applied Biosystem, Foster City, CA, USA). The specific precursor to product ion transitions is [M+H] 433 → 301 for erinacine A and 197 → 169 for 2,4,5-TMBA (internal standard). Data analysis was performed with Analyst 1.4.2 software (Applied Biosystems, Concord, ON, Canada).
# Before intravenous administration, animals were anesthetized with Avertin (2,2,2-Tribromoethanol, 0.071 M). Blood was collected into heparinized microtubes at scheduled time points and centrifuged at 2404× g for 10 min. The plasma (100 μL) was then mixed with equal volume of internal standard 2,4,5-TMBA (final concentration 25 ng/mL) and 300 μL of ethyl acetate. The mixture was vortexed and centrifuged at 13,845× g for 3 min. The supernatant was removed and the residue was reconstituted with isovolumetric acetonitrile for LC-MS/MS analysis. All animal procedures were approved by the Animal Care and Use Committee of Shih Chien University (IACUC#10405).
# All experimental data were presented as mean ± standard deviation (mean ± SD). Maximal plasma concentration (Cmax), and time taken to achieve maximal plasma concentration (Tmax), half-life (T1/2), and area under the plasma concentration − time curve (AUC) were assessed on each animal using the software of WinNonlin (Pharsight Corp., Mountain View, CA, USA) by the non-compartmental model. Applying the pharmacokinetic data of oral administration (po) and intravenous administration (iv), the absolute bioavailability of erinacine A was calculated as [(AUCpo × Doseiv)/(AUCiv × Dosepo)] × 100%.
# [5] = tested on: DLD-1 xenografts; design: method as in doi:10.1016/j.jff.2015.12.031, PMID 31680958; settings: nude mice; cited from earlier work
# [6] = tested on: nerve growth factor (NGF); design: method as in doi:10.1016/S0040-4039(00)76760-8; settings: in vitro; cited from earlier work
# [7] = tested on: rat plasma; experiment: Protein binding in plasma by rapid equilibrium dialysis; type: in vitro ADME, Sprague-Dawley rats
# Method: (§1) Then, the protein binding of erinacine A in the plasma and diluted (4×) tissue homogenates (brain, heart, lung, liver, kidney, stomach, large intestine, and small intestine) was determined by rapid equilibrium dialysis devices with 8000 Da molecular weight cut-off (#89809, Thermo Fisher Scientific, Waltham, MA, USA) according to manufacturer’s guidelines. In brief, the stock solution of erinacine A prepared in methanol was spiked into blank plasma and tissues to yield a final concentration of 200 ng/mL. Two hundred microliter aliquot of spiked samples were then dialysed against 350 µL aliquot of isotonic phosphate buffered saline at 37 °C on an orbital shaker at 250 rpm for 4 h. The resulting sample and buffer dialysates were removed from the chambers, matched with an equal volume of opposite blank matrix, and analyzed by LC-MS/MS. The protein binding of erinacine A is determined by the following Equations (1) and (2):% Free = (concentration at buffer chamber/concentration at sample chamber) × 100%(1) % Bound = 100% − % Free(2)
# [8] = Tissue distribution study after single oral administration; type: in vivo, Sprague-Dawley rats; settings: for Tmax / concentration at 4 h: Sprague-Dawley, rat
# Method: (§2) The homogenates (100 μL) were then mixed with equal volume of internal standard 2,4,5-TMBA (final concentration 25 ng/mL) and 300 μL of ethyl acetate. The mixture was vortexed and centrifuged at 13,845× g for 3 min. The supernatant was removed and the residue was reconstituted with isovolumetric acetonitrile for LC-MS/MS analysis.
# [9] = tested on: transient focal cerebral ischemia; design: method as in PMID 25167134; settings: rat, intraperitoneal 1 mg/kg during the 5 days before onset of ischemia; cited from earlier work
# [10] = tested on: nerve growth factor (NGF); design: method as in doi:10.1016/j.nutres.2005.06.001; settings: rats, 8 mg/kg BW for 5 weeks from birth; cited from earlier work
# [11] = tested on: DLD-1 colorectal adenocarcinoma cells; design: method as in doi:10.1016/j.jff.2015.12.031, PMID 31680958; settings: in vitro; cited from earlier work
# [12] = Excretion study, feces and urine, after single oral administration; type: in vivo, Sprague-Dawley rats
# Method: as §2, with “[…] Feces” for “The homogenates (100 μL)”, “freeze-dried and grinded before mixing with equal volume of internal standard 2,4,5-TMBA (final concentration 25 ng/mL) and 300 μL of ethyl acetate. Urines were” for “then”
# [13] = tested on: diluted (4×) tissue homogenates; experiment: Protein binding in diluted (4×) tissue homogenates by rapid equilibrium dialysis; type: in vitro ADME, Sprague-Dawley rats; settings: calculated from protein binding assay with equation of ref 36
# Method: as §1
# [14] = as above; type: in vitro ADME, Sprague-Dawley rats; settings: Sprague-Dawley, rat, 200 ng/mL, 37 °C, 4 h
# Method: as §1
# [15] = design: method as in PMID 31022946; settings: rats, cited from earlier work
# [16] = male, Sprague-Dawley, iv, rat plasma, I.V. erinacine A 5 mg/kg
# [17] = male, Sprague-Dawley, po, rat plasma, P.O. mycelia extract 2.381 g/kg BW (equivalent to 50 mg/kg erinacine A)
# [18] = 0–4 h after oral mycelia extract 2.381 g/kg BW
# [19] = collected for 24 h, comparison with ref 22
# [20] = unchanged erinacine A, cumulative
# [21] = oral mycelia powder equivalent to 50 mg/kg BW erinacine S
smiles,measurement,setting,value
CC(C)C1=C2C3=CC=C(C=O)C[C@H](O[C@@H]4OC[C@@H](O)[C@H](O)[C@H]4O)[C@]3(C)CC[C@@]2(C)CC1 [erinacine A],Reduction of insoluble β amyloid and C-terminal fragment of amyloid precursor protein,[1],could reduce
same,Stability in plasma and tissues,[2],no degradation was observed
same,Toxicity signs,[3],no toxicity signs were observed
same,AUC,[4]; [16],3120 ng·h/mL
same,Cmax,[4]; [16],4530 ± 3420 ng/mL
same,half-life,[4]; [16],0.0728 ± 0.0758 h
same,Tmax,"[4]; male, Sprague-Dawley, po, rat plasma, P.O. H. erinaceus mycelia extract 2.381 g/kg BW (equivalent to 50 mg/kg BW erinacine A), n = 6",6 h
same,AUC,[4]; [17],7620 ng·h/mL
same,Cmax,[4]; [17],1400 ± 1140 ng/mL
same,half-life,[4]; [17],8.19 ± 1.86 h
same,concentration at 90 min,"[4]; male, Sprague-Dawley, rat, plasma, 2.381 g/kg, oral, at 90 min, read-out: Plasma concentration, first peak",640 ng/mL
same,concentration at 150 min,"[4]; male, Sprague-Dawley, rat, plasma, 2.381 g/kg, oral, at 150 min, read-out: Plasma concentration, second peak",735 ng/mL
same,concentration at 360 min,"[4]; male, Sprague-Dawley, rat, plasma, 2.381 g/kg, oral, at 360 min, read-out: Plasma concentration, third peak",1250 ng/mL
same,bioavailability,"[4]; male, Sprague-Dawley, rat, plasma, rats, [(AUCpo × Doseiv)/(AUCiv × Dosepo)] × 100%, po 50 mg/kg equivalent, iv 5 mg/kg, read-out: Absolute Bioavailability",24.4%
same,Earliest detection in plasma after oral administration,[4]; oral mycelia powder equivalent to 50 mg/kg BW erinacine A,1 min
same,Growth of DLD-1 xenografts,[5],inhibited
same,Nerve growth factor (NGF) stimulation,[6],stimulated nerve growth factor (NGF) in vitro
same,Percent free in plasma,"[7]; 200 ng/mL, 37 °C, 4 h equilibrium dialysis, n = 3",84.00 ± 2.01%
same,Nonspecific binding with the plasma or tissues,"[7]; 37 °C up to 4 h, preliminary study, data not shown",negligible
same,Tmax,"[8]; brain, oral mycelia extract 2.381 g/kg BW, read-out: Time of peak concentration in brain",8 h
same,concentration at 4 h,"[8]; heart, 4 h after oral mycelia extract 2.381 g/kg BW, read-out: Concentration in heart",1110 ± 264 ng/g
same,concentration at 4 h,"[8]; kidney, 4 h after oral mycelia extract 2.381 g/kg BW, read-out: Concentration in kidney",1280 ± 438 ng/g
same,concentration at 4 h,"[8]; large intestine, 4 h after oral mycelia extract 2.381 g/kg BW, read-out: Concentration in large intestine",726 ± 336 ng/g
same,concentration at 4 h,"[8]; liver, 4 h after oral mycelia extract 2.381 g/kg BW, read-out: Concentration in liver",2830 ± 641 ng/g
same,concentration at 4 h,"[8]; lung, 4 h after oral mycelia extract 2.381 g/kg BW, read-out: Concentration in lung",1180 ± 339 ng/g
same,concentration at 4 h,"[8]; small intestine, 4 h after oral mycelia extract 2.381 g/kg BW, read-out: Concentration in small intestine",25400 ± 20400 ng/g
same,concentration at 4 h,"[8]; stomach, 4 h after oral mycelia extract 2.381 g/kg BW (50 mg/kg erinacine A), read-out: Concentration in stomach",56500 ± 27600 ng/g
same,Tmax,"[8]; oral mycelia extract 2.381 g/kg BW, read-out: Time of peak concentration in stomach, small intestine, large intestine, liver, heart, lung and kidney",4 h
same,Maximum concentration in brain,[8]; eight hours after oral mycelia extract 2.381 g/kg BW,0.205 ± 0.079 µg/g
same,Detectability in tissues at the end of 24 h,[8]; oral mycelia extract 2.381 g/kg BW,"still detectable in GI tract, heart, and liver"
same,Blood-brain barrier penetration,"[8]; rats, oral mycelia extract",can penetrate the blood-brain barrier of rats by the means of passive diffusion
same,Levels of acute inflammatory cytokines and ischemia-injury-induced neuronal cell death,[9],significantly reduced
same,NGF content in hippocampus and locus coeruleus,[10],increased NGF content
same,Proliferation of DLD-1 cells,[11],inhibited the proliferation
same,Feces Concentration,[12]; [18],1.533 ± 2.625 µg/g
same,Urine Concentration,[12]; [18],0.248 µg/mL and 0.248 ± 0.210 µg/mL
same,Feces Concentration,[12]; 4–8 h,81.853 ± 99.919 µg/g
same,Urine Concentration,[12]; 4–8 h,0.118 ± 0.103 µg/mL
same,Feces Concentration,[12]; 8–12 h,271.237 µg/g and 271.237 ± 404.357 µg/g
same,Urine Concentration,[12]; 8–12 h,0.059 ± 0.043 µg/mL
same,Feces Concentration,[12]; 12–24 h,122.824 ± 198.611 µg/g
same,Urine Concentration,[12]; 12–24 h,0.055 ± 0.066 µg/mL
same,Feces Concentration,[12]; 24–36 h,4.475 ± 6.477 µg/g
same,Urine Concentration,[12]; 24–36 h,0.021 ± 0.037 µg/mL
same,Feces Concentration,[12]; 36–48 h,0.062 ± 0.099 µg/g
same,Urine Concentration,[12]; 36–48 h,0.016 ± 0.018 µg/mL
same,Total amount of unchanged compound in feces relative to erinacine S,[12]; [19],more than 20 times
same,Total amount of unchanged compound in urine relative to erinacine S,[12]; [19],> 2 times
same,"Cumulative fecal excretion, % of administered dose",[12]; unchanged erinacine A,2.823%
same,"Cumulative urinary excretion, % of administered dose",[12]; unchanged erinacine A,0.017%
same,Total Amount excreted in feces,[12]; [20],428.379 ± 368.502 µg
same,Total Amount excreted in urine,[12]; [20],2.604 ± 2.149 µg
same,Unbound brain-to-plasma concentration ratio,[13],close to unity
same,"fraction unbound at 4 h, 200 ng/mL","[14]; diluted (4×) brain homogenate, brain homogenate, highest, read-out: Binding with the brain (% bound) (converted)",0.711
same,"fraction unbound at 4 h, 200 ng/mL","[14]; diluted (4×) stomach homogenate, stomach homogenate, lowest, read-out: Binding with the stomach (% bound) (converted)",0.883
CC(C)C1=C2[C@H]3CCC4=C(O)C(=O)[C@@]5(O)CO[C@H]6O[C@@H]([C@@H]4[C@]65O)[C@]3(C)CC[C@@]2(C)CC1 [erinacine S],Reduction of insoluble β amyloid and C-terminal fragment of amyloid precursor protein,[1],not
same,Maximum plasma concentration,[15]; [21],0.73 µg/mL
same,Time to reach maximum plasma concentration,[15]; [21],270.00 min
same,Absolute bioavailability,[15],15.13%
